A word on the melting point: it is the temperature of the solid-liquid transition.

Residues, ends and D or L forms follow the SMILES beside them. *: point of attachment. Cbz = O=C(OCc1ccccc1)*; Boc = CC(C)(C)OC(=O)*

`Cc1nc2ccccc2c(=O)n1CCO` returned a melting point of 159 to 160 °C. To `CC(=O)N[C@@H](CSC(=O)[C@@H](C)c1ccc(CC(C)C)cc1)C(=O)O` belongs 123 to 125 °C; to `COc1cc(OC)c(-c2cc3ccccc3n2C)cc1C=CC(=O)c1ccc(S(=O)(=O)NO)cc1`, > 260 °C. `CC12CC(N3CCC4(CC3)OCCO4)C(O)CC1CCC1C2CCC2(C)C(O)C(N3CCC(O)CC3)CC12` (stereo not drawn): the melting point lay within 253 to 255 °C.

Take `CNc1ccc2c(c1)C(c1ccccc1F)=NCc1cnc(C)n1-2`: the melting point lay in the range of 255 to 259 °C. `COc1ccccc1NC(=O)Nc1cccc(-n2c(=O)c(CCC(=O)ON3C(=O)CCC3=O)nc3cccnc32)c1` registered a melting point of 235 to 237 °C. In the case of `CC(=O)Oc1cc(/C=C/c2ccccc2)cc(OC(C)=O)c1OC(C)=O`, the melting point is 119 to 120 °C.

Take `CCCCCCC(O)CNCCCCCCNCC(O)CCCCCC` (stereo not drawn): the melting point was in the range of 124 to 127 °C. To `CCCc1nc2nc3cc(Cl)ccc3nc2[nH]1` belongs 280 to 282 °C; to `COc1cc(OC)nc(NC(=O)NS(=O)(=O)c2cc(N)ccc2C(=O)N(C)C)n1`, 192 to 193 °C. Next, `O=C(Nc1c[nH]nc1C(=O)NCCOc1ccccc1)c1ccccn1`: 182 to 183 °C; `O=C(NCc1ccc(Cl)cc1)c1cn2c(CO)cc3cc(CC4CCOCC4)cc(c1=O)c32`: 71 to 74 °C. To `CSc1sc(-c2cncs2)c2c1C(=O)CC(C)(C)C2` belongs 138 to 140 °C.

As to `CCCCCCc1cc2c(cc1C(=O)Oc1ccc(C(=O)OCc3ccccc3)cn1)C(C)(C)CCC2(C)C`, the melting point was in the range of 94 to 95 °C. Next, `CCn1cc(C(=O)O)c(=O)c2cc(F)c(N3CCNC(COC(C)C)C3)cc21` (stereo not drawn): 144 to 146 °C. To `CCOC(=O)Nn1cccc1C(=O)c1ccccc1Cl` belongs 90 to 92 °C; to `Cn1c(=O)c2cccc(N)c2c(=O)c2ccccc21`, 171 to 173 °C; to `CC=CCn1c(C)c(C)c2cnnc(OCc3ccc(Cl)cc3F)c21`, 106 to 109 °C. Next, `O=C(NNS(=O)(=O)c1ccccc1)c1ccc2[nH]ccc2c1`: 209 to 211 °C; `O=C=Nc1cc(Cl)c(Br)cc1CBr`: 48 to 50 °C.

`N=C(Cc1ccccc1)N1CC2C(=O)CCC(c3ccccc3)(c3ccccc3)C2C1` (stereo not drawn) had a melting point of 195 °C. To `COc1cc(N)ccc1S(=O)(=O)Nc1ccc(C)cc1` belongs 158 to 160 °C.

Take `COc1ccc(CCNc2nccc(-c3cccc(NC(=O)CCN(C)C)c3)n2)cc1OC`: the melting point fell in the range of 107 to 108 °C. To `CC(C)(O)c1ccc(-c2cnc3[nH]c(=O)n(CCC4CCOCC4)c3n2)cc1` belongs 263 to 266 °C; to `CSC(=S)NN=Cc1ccccn1`, 171 to 173 °C; to `CCCc1c(C(=O)C(C)C)c2ccc(C(N)=O)cc2n1Cc1ccc(Cl)cc1F`, 200 to 202 °C. To `c1ccc(OCC2CO2)c(Cc2cccc3[nH]ccc23)c1` (stereo not drawn) belongs 78 °C. To `N#Cc1ccc(C2NC(=O)Cc3ccccc32)cc1` (stereo not drawn) belongs 165 to 168 °C; to `NC(=O)NCCC(F)=C(F)F`, 86 to 88 °C; to `O=C(O)c1cccc(-c2nn(Cc3ccccc3)c3ccccc23)c1`, 190 to 192 °C. In turn, `CCOC(=O)C(C)Oc1ccc([N+](=O)[O-])cc1` (stereo not drawn) displayed a melting point of 55 to 56 °C.

`CCCCc1nc2cccc(C(=O)OC)c2c(=O)n1Cc1ccc(-c2ccccc2-c2nnn[nH]2)cc1` yielded a melting point of 133 to 143 °C. The compound `CC(C)C[C@H](N)C(=O)NCCCCNC(=O)OCc1ccccc1` registered a melting point of 137 to 139 °C.

In the case of `O=C1C(=O)c2ccccc2C2=C1SCC1(CCN(Cc3ccc(F)cc3)CC1)O2`, the melting point lay within 104 to 106 °C. In turn, `N#Cc1ccc(ON=C2CCCC(C(=O)O)C2)cc1` (stereo not drawn) showed a melting point of 153 to 154 °C. Compound `CCOC(=O)C=Cc1ccc(C=Cc2csc3ccccc23)s1` yielded a melting point of 99 to 100 °C. As for `CC(NC(=O)OCc1ccccc1)C(=O)NC(C(=O)NC(CCCCNC(=O)OC(C)(C)C)C(N)=O)C(C)C` (stereo not drawn) (Cbz-Ala-Val-Lys(Boc)-NH2; configuration not given here), the melting point lay in the range of 214 to 217 °C. In turn, `CCOCn1c(C(=O)c2ccccc2)c(CC)c(=O)[nH]c1=O` came in with a melting point of 133 to 134 °C. For `CCOC(=O)CN1Cc2c(C)cccc2NC1=O`, the melting point was 184 to 185 °C. Compound `Cc1c(CN2CCc3c(c4ccccc4n3C)C2=O)ncn1S(=O)(=O)N(C)C` yielded a melting point of 194 to 196 °C.

For `CC(C)N1C(=O)NC(c2ccc3c(c2)OCCO3)c2cc3c(cc21)OCO3` (stereo not drawn), the melting point was in the range of 185 to 187 °C. Compound `O=C(O)c1cccc(-c2coc3c(O)c(O)ccc3c2=O)c1` yielded a melting point of 313 to 314 °C. `COc1c(-c2cc3c(s2)C(O)CCC3)ccc2c(=O)c(C(=O)O)cn(C3CC3)c12` (stereo not drawn) yielded a melting point of 238 to 240 °C.

`CC(=O)OC1CSC(Oc2cncc(-c3cc4ccccc4s3)c2)C(OC(C)=O)C1OC(C)=O` (stereo not drawn) returned a melting point of 168 °C. `NOCc1nnc2n1-c1ccc(Cl)cc1C(c1ccccc1)=NC2` displayed a melting point of 183 to 186 °C. For the compound `CSc1c(F)cc(C(=O)CBr)cc1F`, the melting point was in the range of 30.5 to 33.2 °C. Turning to `O=C(CN1C(=O)C2(COc3cc4c(cc32)CCO4)c2c(Br)cccc21)Nc1ccccc1F` (stereo not drawn), the melting point was 245 to 246 °C. Next, `O=C(O)c1cccc(-c2nc(=O)c3ccccc3s2)n1`: 260 °C; `O=C1SC(Cc2ccc(OCCON=Cc3ccc(-c4ccccc4)nc3)cc2)C(=O)N1C(c1ccccc1)(c1ccccc1)c1ccccc1` (stereo not drawn): 146 to 148 °C; `N#CCCn1c(-c2ccccc2)cc2ccccc21`: 90 °C. Regarding `N#Cc1cc(F)c(F)cc1[N+](=O)[O-]`, the melting point was determined as 75 °C.

`CCCCc1c2ccccc2c(C=O)c2ccccc12` returned a melting point of 79 °C. Next, `CCCCCCCCCCCCCCOc1ccc(C(=O)Cc2ccc([N+](=O)[O-])cc2)cc1`: 84 to 85 °C; `N=C(N)Nc1nc(CCCCC(=N)NS(N)(=O)=O)cs1`: 156 to 157 °C. Consider `Cn1nc(-c2cnc3[nH]cc(C(=O)NCC(C)(C)C)c3n2)c2ccc(F)cc21`, for which the melting point lay in the range of 294 to 295 °C. Next, `CC(C)c1ccc(C2c3ccc(O)cc3OC2(C)C)cc1` (stereo not drawn): 114 to 115 °C. `COc1cc(COc2nn(-c3ccccc3)cc2/C=C/c2coc(C(C)(C)C)n2)ccc1OCc1nc(-c2ccc(CC(=O)O)cc2)oc1C` had a melting point of 104 to 106 °C. Next, `N#Cc1ccc(C=Cc2ccc(-c3cc4ccccc4o3)cc2)cc1`: 314 to 315 °C. Next, `CCCCSC(=NC(C)=O)Nc1c(Cl)cccc1Cl`: 84 to 89 °C; `CC12CCC(O)CC1=CCC1C2CCC2(C)C(=C(F)CO)CCC12` (stereo not drawn): 198 to 203 °C.

Compound `CC(=O)Nc1ccc(OCCCCCO[N+](=O)[O-])cc1` had a melting point of 96 to 98 °C. To `CC(SC1COC(c2ccc(C(=O)Nc3ccc(OC(F)(F)F)cc3)cc2)OC1)C(O)(Cn1cncn1)c1ccc(F)cc1F` (stereo not drawn) belongs 180 °C; to `CCOC(=O)C1=CCCCC1S(=O)(=O)Nn1cccc1C` (stereo not drawn), 100 to 101 °C. To `Cc1c(SCCCSCc2ccc(Cl)s2)ccnc1CSc1ccncc1` belongs 76 to 77 °C; to `COc1ccc(-c2coc3ccc(-c4nnc(SCc5cccc(C#N)c5)o4)cc23)cc1`, 145 to 146 °C. `Cc1ccc2c(C(=O)C(F)(F)F)c[nH]c2c1` displayed a melting point of 216 to 218 °C. Consider `CC1(C)CC1(N)C(=O)OCC(CO)OCn1cnc2c(=O)[nH]c(N)nc21` (stereo not drawn), for which the melting point is > 300 °C. To `O=c1nc(-c2ccc(NCc3ccccc3)nc2)sc2ccccc12` belongs 194 to 196 °C. Next, `CS(=O)(=O)C(=C1CN(C(c2ccccc2)c2ccccc2)C1)c1ccc(Cl)c(Cl)c1`: 170 °C. Consider `C[C@H](c1ccccc1)n1c(=O)c2c(Cl)cc(Cl)cc2n(Cc2ccccc2)c1=O`, for which the melting point was 93 to 97 °C. To `COc1nccc2c(C)c3[nH]c4ccncc4c3cc12` belongs > 263 °C; to `CNc1ncn(C)c1C(=O)NCc1ccccc1`, 110 to 111 °C; to `C=C(C)C(=O)OC(c1ccccc1)(c1ccccc1)c1ccncc1`, 98.5 to 99.5 °C. To `NS(=O)(=O)c1ccc(S(=O)(=O)CCCO)c([N+](=O)[O-])c1` belongs 168 to 170 °C; to `CCCCCCCC(=O)Nc1cc(Cc2c(Cl)cccc2Cl)nc(Nc2ccc(C#N)cc2)n1`, 135 to 137 °C. `CN1CCCC(c2cccc3[nH]ccc23)C1` (stereo not drawn) returned a melting point of 151 °C. Next, `Cc1c(Cl)cccc1NCc1ccccc1Cl`: 63 to 66 °C; `Cc1cc(C(C)(C)C)c(O)c(S(=O)(=O)Nc2ccc(I)cc2)c1`: 184 to 185 °C; `CCC(CC)Cn1c(=O)c(=O)[nH]c2cc(Cl)ccc21`: 253 to 255 °C. In turn, `O=c1ccn(CCO)c(C(O)c2ccc3ccccc3c2)c1OCc1ccccc1` (stereo not drawn) came in with a melting point of 110 to 112 °C. To `Cc1c(-c2cccc(F)c2)nc2n1CCc1ccccc1C2OC1CCN(C)CC1` (stereo not drawn) belongs 132 °C; to `Cc1cc(NC(=S)Nc2cc(Cl)ccc2C)sn1`, 187 to 188 °C; to `C=C1C(=O)N(C)CCC1(CC(=O)OC)c1cccc(OC)c1` (stereo not drawn), 85 to 86 °C. Next, `CN1C(=O)Cn2c(nn(Cc3ccccc3)c2=O)-c2cc(Cl)ccc21`: 120 to 122 °C; `CS(=O)CCc1nc2nc[nH]c2c2nc(-c3ccc(-c4ccccc4)cc3)nn12` (stereo not drawn): 188 °C. Next, `Cc1c(Br)cccc1N1CCn2c(cc3c2CCCC3)C1=O`: 163 to 165 °C; `CC(=O)OCC(C)C1=CCC2C3CC=C4CC(OC(C)=O)CCC4(C)C3CCC12C` (stereo not drawn): 116 to 117 °C. In the case of `CC(CCc1cccc(OCCC(NC(=O)OCc2ccccc2)C(=O)O)c1)=NNC=NN` (stereo not drawn), the melting point is 95 to 100 °C.

For the origin of these results see a melting point compilation (Tetko et al.; mined from patent text by program, amines drawn as free bases though some values may be those of a salt).
